The IC50 is the concentration that inhibits the measured activity by half.

Several values for one entry are separate records, joined by “and”; a condition that tells them apart may be missing. Equal values may be shown once.

Results on seven molecules are retold here after patent publication US5871779A, “Treatment of arthropathies with vanadate compounds or analogues thereof” (Mount Sinai Hospital Corporation, priority 1996, dated 1999).

Data set [1] relates to collagenase. The data set is described as follows: collagenase production by chondrocytes (ELISA). The class given is cell-based, bovine. The conditions noted are these: summary statement. The protocol:
The effect of orthovanadate and N-acetylcysteine on fos, jun and collagenase expression were examined. Bovine articular chondrocytes were isolated and plated as previously described (Kandel R. A. et al. Biochim. Biophys. Acta. 1053, 130-134, 1990). In order to determine the effect of orthovanadate on IL 1 and PMA (phorbol ester) induced responses, chondrocytes were incubated with orthovanadate (100 μM) for 2 hours before stimulation with IL 1 (10 ng/ml) or PMA ([…]). Collagenase production was determined by incubating chondrocytes for 24 hours with IL 1 or PMA and the cell conditioned medium was assayed for collagenase activity using an ELISA procedure as described previously (Kandel et al. supra). PLA2 activity was measured by incorporating ^3 H-arachidonic acid (^3 H-AA) into the cells and then incubating the cells with medium containing 1 mg/ml BSA, either alone or in the presence of IL 1 or PMA, for 10 min. as previously described (Conquer, J. A. […], Biochim. Biophys. Acta. 1134, 1-6). The amount of ^3 H-AA liberated into the supernatant was determined. To measure PGE2 production, chondrocytes were incubated for 6 hours in Ham's F12 medium, either alone or with IL 1 or PMA. The supernatant was analyzed by RIA using an antibody specific for PGE2 (Dr. S. A. Jones, Mount Sinai Hospital, Toronto, Canada). In order to examine the expression of c-fos and c-jun, chondrocytes were incubated for 1 hour in the presence of IL-1, PMA or AA (3 μM). Chondrocytes were washed in PBS and the total RNA extracted as previously described (Cruz. et al, 1991, Biochem. J. 277, 327-330). RNA samples were run on formaldehyde agarose gels and transferred to nylon membrane for northern analysis using cDNA probes for c-fos and c-jun.
On the technique in general: In an ELISA, binding on a coated surface is turned into a signal by an enzyme label.

The test system of data set [2] is proliferating chondrocytes. The data set is described as follows: viability / proliferation of proliferating chondrocytes (low cell density). The conditions noted are these: summary statement. The class given is cell-based. The protocol:
In order to compare the effect of orthovanadate on non-proliferating and proliferating chondrocytes, chondrocytes were plated at both high cell density (2×10^6 to 4×10^6 cells/per well on a six well plate) (nonproliferating) and at a lower cell density (5×10^5 to 1×10^6 cells/per well on a six well plate) (proliferating) and then maintained for 48 hours. The cells were then incubated in media (HAMS F12) containing 0-50 μM Orthovanadate for an additional 48 hours. The cells were harvested and the number of viable cells determined.

For data set [3], the system named is P388 (WT). Nature of the data set: MTT cytotoxicity assay, P388 (WT). The class given is cell-based, murine. The note with it: P388 (WT), 72 hours; read-out: IC50 Value. The protocol: (§1) The relative cytotoxicity of various compounds on tumor cell lines was investigated as follows. Cytotoxicity was measured by the MTT microculture tetrazolium colorimetric assay for all cell lines. The relative cytotoxicity of Na3 VO4 and VOSO4 was investigated using the following tumor cell lines: P388(WT) murine leukemia, P388 (ADR) murine leukemia, Lewis murine lung, MCF7 (WT) human breast, […] human lung, K562 human erythroleukemia, A431 human epidermal, LS180 human colon and SK-OV-3 human ovarian. The relative cytotoxicity of doxorubicin, Na3 VO4 and VOSO4 was investigated using the following tumor cell lines: P388(WT) murine leukemia, P388 (ADR) murine leukemia, MCF7(WT) human breast and MCF7 (ADR) human breast. The relative cytotoxicity of BMOV, BEOV and naglivan was investigated using the following tumor cell lines: P388(WT) murine leukemia, P388 (ADR) murine leukemia, Lewis murine lung, H460 human lung, K562 human erythroleukemia, and SK-OV-3 human ovarian.
(§2) The cells were plated (number of cells/well was different from cell line to cell depending on the dividing rate) in a 96-well microculture plate 24 hours prior to the delivery of the vanadium compounds. Serial concentrations of solutions of the test compounds (0.05-100 μM) were delivered to the corresponding wells. A blank column (without cells) and a control column (with cells without vanadium) were left. The cells were incubated for 72 hours continuously. An MTT solution was added to each well after this incubation period and the cells were incubated for 4 more hours for the completion of the dyeing process. The medium was removed find DMSO was added to each well. The absorbance of each well was read with a Titertek Multiskan (310C) spectrophotometer at 570 nm. The percentage of the absorbance of each vanadium concentration relative to the control calculated and the value of the 50% growth inhibition concentration (IC50) was obtained from the % control versus concentration plot. Each assay was repeated three times and the reported IC50 values were the mean of these three runs.
A general note: Tetrazolium dyes change colour on reduction, which living cells bring about.

In data set [4] the test system is P388 (ADR). The data set is described as follows: MTT cytotoxicity assay, P388 (ADR). The class given is cell-based, murine. The note with it: P388 (ADR), 72 hours; read-out: IC50 Value. The protocol: as §1, §2
The subject of data set [5] is Lewis lung. Nature of the data set: MTT cytotoxicity assay, Lewis lung. The class given is cell-based, murine. The note with it: 72 hours. The protocol:
as §1, §2

Data set [6] has as its system H460. The data set is described as follows: MTT cytotoxicity assay, H460. The data set is classed as cell-based, human. The conditions noted are these: H460, 72 hours. The protocol:
as §1, §2

Data set [7] has as its system K562. Nature of the data set: MTT cytotoxicity assay, K562. The data set is classed as cell-based, human. The conditions noted are these: K562, 72 hours. The protocol:
as §1
as §2, with “Serial concentrations of solutions of the test compounds (0.05-100 μM) were delivered to the corresponding wells.” left out

The subject of data set [8] is SK-OV-3. Nature of the data set: MTT cytotoxicity assay, SK-OV-3. The data set is classed as cell-based, human. The note with it: SK-OV-3, 72 hours. The protocol: as §1, §2
Data set [9] has as its system MDAY-2D tumor. Nature of the data set: BEOV and N-acetylcysteine on tumor growth (Example 21). The class given is in vivo, mice. The note with it: for Tumour weight: individual mice. Further details: unit not given here. The protocol: The effectiveness of BEOV in reducing tumor growth was investigated and the effective concentration required for inhibiting tumor growth was determined as follows.
(§3) Forty mice were subcutaneously injected with 100 μl of MDAY-2D tumor cell suspension (8×10^6 /100 μl)on day 1. On day 6, the mice were randomly divided into […] groups and injected following drugs twice a day. The […] groups were as follows: Group 1: 100 μl of PBS; Group 2: 100 μl of 2% NAC(ip) and 0.1 mg BEOV in 100 μl BS; Group 3: 100 μl of 2% NAC(ip) and 0.25 mg BEOV in 100 μl PBS; and Group 4: 100 μl of 2% NAC(ip) and 0.5 mg BEOV in 100 μl PBS. On injection day 9, the mice were sacrificed and the tumors dissected.

The nature of data set [10]: body weight of mice, BEOV and N-acetylcysteine (Example 21). The data set is classed as in vivo. Further details: Body weight / Body weight, Average: unit not given here. The note with it: for Body weight: individual mice; for death of animal: mouse 5. The protocol:
as §3

Data set [11] has as its system carcinogenesis. The conditions noted are these: G. Shklar et al.; cited from earlier work.
The test system of data set [12] is MDAY-2D tumor. Nature of the data set: ammonium bisvanadate and N-acetylcysteine on tumor growth (Example 22). Further details: Tumour weight: unit not given here. The conditions noted are these: for Tumour weight: individual mice. The data set is classed as in vivo, mice. The protocol: Forty mice were subcutaneously injected with MDAY-2D tumor cells (8×10^5 /100 μl) on day 1. On day 6, the mice were randomly divided into six groups and injected with the following drugs twice a day: Group 1: 100 μl of PBS; Group 2: 100 μl of 2% NAC(ip) and 0.1 mg ammonium bisvanadate in 100 μl PBS; Group 3: 100 μl of 2% NAC(ip) and 0.25 mg ammonium bisvanadate in 100 μl PBS; Group 4;100 μl of 2% NAC(ip) and 0.5 mg ammonium bisvanadate in 100 μl PBS; Group 5: 100 μl of 2% NAC (ip) and 0.75 mg ammonium bisvanadate in 100 μl PBS and; Group 6: 100 μl of 2% NAC (ip) and 1.0 mg ammonium bisvanadate.
On injection day 11 the mice were sacrificed and the tumors dissected. […] The effective concentrations of the vanadate complexes are from 0.25mg/100 μl and 0.5 mg/100 μl.

The subject of data set [13] is MDAY-D2 cells. The data set is described as follows: viability of MDAY-D2 cells. The data set is classed as cell-based, mouse. The conditions noted are these: 0-50 μM, 48 hours, three forms compared. The protocol:
Fos and jun activity are also required for cellular proliferation in many tumor cell lines. Accordingly, the effect of orthovanadate on adherent cells and cell suspensions were examined. MDAY-D2 (a mouse lymphoid cell line grown in suspension) and HTB14 cells (an adherent human primary astrocytoma cell line) were incubated in media containing 0-50 μM orthovanadate for 48 hours. The cells were harvested and the number of viable cells determined.
Three different forms of vanadyl compounds were examined for their effect on viability of cancer cell lines. MDAY-D2 cells were incubated in media containing 0-50 μM orthovanadate, vanadyl sulphate, or vanadyl hydroperoxide for 48 hours. The cells were harvested and the number of viable cells determined. […] Although there were slight differences in sensitivity, the overall cell death was similar.

In data set [14] the test system is MDAY-D2 tumor. The data set is described as follows: MDAY-D2 tumor growth in vivo, orthovanadate, vanadyl sulphate, vanadyl hydroperoxide (Example 6B). Further details: species or system mice. From the text: In order to examine the ability of vanadyl compounds to reduce tumor formation, growth and metastases, a specific animal model which allows investigation of all of these processes in the same animal was chosen. This model involves the injection of a metastatic haematopoietic cell line, MDAY-D2, into mice subcutaneously. These cells form a tumor at the site of injection and its size can be easily determined. In addition, these cells metastasize to the liver and metastases can be detected histologically after day 17 to 19. This model provides a very sensitive and reproducible approach to investigate the effect of vanadyl compounds on tumor growth and metastases.
In a separate experiment using the same animal model, the effect of orthovanadate, vanadyl sulphate and vanadyl hydroperoxide administration on tumor growth in vivo was examined. On Day 1, 20 mice were injected with 2×10^5 MDAY-D2 cell subcutaneously. The mice were divided into four groups of five mice. At day 5, the animals were injected subcutaneously with 50 μl of water alone or containing 10 mg/ml of orthovanadate, 10 mg/ml of vanadyl sulphate, or 10 mg/ml of vanadyl hydroperoxide. This treatment was continued daily for 16 days. At day 21, the mice were sacrificed and the tumors dissected and weighed.

Consider `CCc1occc(=O)c1[O][V](=[O])[O]c1c(CC)occc1=O` [BEOV, bis(ethylmaltolato) oxovanadium], for which the “production of metalloproteases, such as collagenase” value in data set [1] is on record as “inhibit”. The “proliferation of cells, such as chondrocytes” value in [2] was “inhibit”. For the same molecule, the IC50 in data set [3] stood at 82.6 µM; in data set [4], 39.8 µM; in [5], 97.4 µM; in data set [6], 4.4 µM; in data set [7], 374 µM; in data set [8], 2.6 µM. Moreover, the results for the “Tumour weight, Average” value in [9] (0.1 mg BEOV + 2% NAC), in data set [9] (0.25 mg BEOV + 2% NAC) and in [9] (0.5 mg BEOV + 2% NAC) were 0.82, 0.08 and 0.03, respectively. Further, the Tumour weight is 0.9 and 0.6 and 0.8 and 1.0 in [9] (0.1 mg BEOV twice a day + 2% NAC ip); 0.28 and 0.0 and 0.12 in [9] (0.25 mg BEOV twice a day + 2% NAC ip); 0.1 and 0.0 in [9] (0.5 mg BEOV twice a day + 2% NAC ip). Further, the “Body weight, Average” value stood at 16.5 in data set [10] (0.1 mg BEOV + 2% NAC), 16.02 in data set [10] (0.25 mg BEOV + 2% NAC) and 15.25 in data set [10] (0.5 mg BEOV + 2% NAC). Also, the Body weight in data set [10] (0.1 mg BEOV + 2% NAC) was 17.8 and 15.5 and 15.9 and 16.8; in data set [10] (0.25 mg BEOV + 2% NAC), 15.9 and 15.7 and 16.9 and 15.4 and 16.2; in data set [10] (0.5 mg BEOV + 2% NAC), 13.7 and 13.9 and 16 and 17.4. Also, the death of animal result in data set [10] (0.1 mg BEOV + 2% NAC) and in data set [10] (0.5 mg BEOV + 2% NAC) was “died” throughout.
As to `N[C@@H](CCC(=O)N[C@@H](CS)C(=O)NCC(=O)O)C(=O)O` [glutathione], the anticancer activity entry in data set [11] is “anticancer activity”.
Take `CC1=C(/C=C/C(C)=C/C=C/C(C)=C/C=C/C=C(C)/C=C/C=C(C)/C=C/C2=C(C)CCCC2(C)C)C(C)(C)CCC1` [β-carotene]: in data set [11], the anticancer activity result was “anticancer activity”.
In the case of ammonium bis vanadate [ABOV], in [1], the “production of metalloproteases, such as collagenase” value is “inhibit”. Besides, the “proliferation of cells, such as chondrocytes” value in data set [2] is “inhibit”. In addition, the Tumour weight in data set [12] (0.1 mg ABOV twice a day + 2% NAC ip) is 0.62 and 0.19 and 0.74 and 0.53 and 0.32 and 0.50; in data set [12] (0.25 mg ABOV twice a day + 2% NAC ip), 0.25 and 0.33 and 0.54 and 0.20 and 0.0 and 0.18; in data set [12] (0.5 mg ABOV twice a day + 2% NAC ip), 0.21 and 0.50 and 0.07 and 0.34 and 0.0. Moreover, the death of animals entry in [12] (0.75 mg ABOV twice a day + 2% NAC ip) and in data set [12] (1.0 mg ABOV twice a day + 2% NAC ip) was “died” throughout. Besides, the “inhibition of tumor growth” value in data set [12] (with NAC) is on record as “inhibited the tumor growth”.
On to n-tocopherol, for which the anticancer activity entry in [11] was “anticancer activity”.
Regarding vanadyl hydroperoxide, the “killing of MDAY-D2 cells” value in data set [13] is recorded as “equally effective”. Further, the animal deaths entry in [14] (groups of five, 10 mg/ml, 50 μl daily s.c.) was “all five died”. Further, the “efficacy in reducing tumor growth” value in [14] (mouse, in vivo) is given as “too toxic to evaluate its efficacy”.
On to vitamin E, for which, in data set [11], the anticancer activity entry was “anticancer activity”.
